Earlier results as cited in patent publication US20060068010A1, “Method for improving the bioavailability of orally delivered therapeutics” (priority 2004, published 2006).
Structures can show the parent of a compound that is named as a salt. Where two headings read alike, the source gives them in different places.

Assays:
[1] = normalized to glycine = 0, most hydrophobic = 100
[2] = humans

SMILES | Hydrophobicity Index ([1]; At pH 2) | Hydrophobicity Index ([1]; At pH 7) | also measured
CN(CCOc1ccc(CC2SC(=O)NC2=O)cc1)c1ccccn1.O=C(O)/C=C\C(=O)O (racemic) [Rosiglitazone maleate, (±)-5-[[4-[2-(methyl-2-pyridinylamino)ethoxy]phenyl]methyl]-2,4-thiazolidinedione, (Z)-2-butenedioate (1:1)] | – | – | solubility dependence on pH (physiological pH range): decreases with increased pH
Cc1nccn1CC1CCc2c(c3ccccc3n2C)C1=O (racemic) [ondansetron, (+/−) 1,2,3,9-tetrahydro-9-methyl-3-[2-methyl-1H-imidazol-1-yl]-4H-carbazol-4-one, monohydrochloride, dehydrate] | – | – | solubility classification (base form, at pH greater than 5.0): low solubility
C[C@H](N)C(=O)O [Ala, Alanine] | 47 | 41 | –
NC(=O)C[C@H](N)C(=O)O [Asn, asparagine] | −41 | −28 | –
CC(C)NCC(O)COc1ccc(CC(N)=O)cc1 (stereo not drawn) [Atenolol, benzeneacetamide, 4-[2′-hydroxy-3′-[(1-methylethyl)amino]propoxy]-] | – | – | fraction of an oral dose absorbed from the gastrointestinal tract [2]: about 50%
N[C@@H](CS)C(=O)O [Cys, cysteine] | 52 | 49 | –
N[C@@H](Cc1c[nH]cn1)C(=O)O [His, histidine] | −42 | 8 | –
NCCCC[C@H](N)C(=O)O [Lys, lysine] | −37 | −23 | –
N[C@@H](Cc1c[nH]c2ccccc12)C(=O)O [Trp, tryptophan] | 84 | 97 | –
O=C(c1ccc(OCCN2CCCCC2)cc1)c1c(-c2ccc(O)cc2)sc2cc(O)ccc12 [raloxifene hydrochloride, 6-hydroxy-2-(4-hydroxyphenyl)-3-[4-(2-piperidinoethoxy)benzoyl]benzo[p]-thiophene] | – | – | solubility (hydrochloride-salt form): approximately 0.3 mg/mL; solubility classification (hydrochloride-salt form): very slightly soluble

Continued, in another order:

Hydrophobicity Index ([1]; At pH 2) | Hydrophobicity Index ([1]; At pH 7) | SMILES | also measured
100 | 99 | CC[C@H](C)[C@H](N)C(=O)O [Ile, isoleucine] | –
74 | 74 | CSCC[C@H](N)C(=O)O [Met, methionine] | –
92 | 100 | N[C@@H](Cc1ccccc1)C(=O)O [Phe, phenylalanine] | –
49 | 63 | N[C@@H](Cc1ccc(O)cc1)C(=O)O [Tyr, tyrosine] | –
79 | 76 | CC(C)[C@H](N)C(=O)O [Val, valine] | –
